Measured values as given in PubChem BioAssay AID2060886 (Molecular Pharmacology Branch, DTP, NCI, 2025).
Blank lines part the entries; values can stand above or below the compound they belong to.

Tested on: 653999-131-R-J2-PDC complex spheroids, growth inhibition
Assay: Anticancer human tumor 653999-131-R-J2-PDC patient-derived lung adenocarcinoma cell line growth inhibition [RAS]
Settings: for IC50: curve of first compound; for viability, T/C: stronger effect = lower value
Procedure, shortened: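 Multi-cell-type spheroids: tumor cells plus HUVEC endothelial cells and mesenchymal stem cells. RAS-pathway inhibitors were combined with targeted agents, each dosed in half-log steps down from clinical Cmax, or from 10 microM when Cmax was unknown.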

[1] = second compound 0.000949 µM, first compound 0.0316 µM
[2] = second compound 0.000949 µM, first compound 0.1 µM
[3] = second compound 0.000949 µM, first compound 0.316 µM
[4] = second compound 0.000949 µM, first compound 1 µM
[5] = second compound 0.003 µM, first compound 0.0316 µM
[6] = second compound 0.003 µM, first compound 0.1 µM
[7] = second compound 0.003 µM, first compound 0.316 µM
[8] = second compound 0.003 µM, first compound 1 µM
[9] = second compound 0.00949 µM, first compound 0.0316 µM
[10] = second compound 0.00949 µM, first compound 0.1 µM
[11] = second compound 0.00949 µM, first compound 0.316 µM
[12] = second compound 0.00949 µM, first compound 1 µM
[13] = second compound 0.03 µM, first compound 0.0316 µM
[14] = second compound 0.03 µM, first compound 0.1 µM
[15] = second compound 0.03 µM, first compound 0.316 µM
[16] = second compound 0.03 µM, first compound 1 µM
[17] = second compound 0.0949 µM, first compound 0.0316 µM
[18] = second compound 0.0949 µM, first compound 0.1 µM
[19] = second compound 0.0949 µM, first compound 0.316 µM
[20] = second compound 0.0949 µM, first compound 1 µM
[21] = second compound 0.3 µM, first compound 0.0316 µM
[22] = second compound 0.3 µM, first compound 0.1 µM
[23] = second compound 0.3 µM, first compound 0.316 µM
[24] = second compound 0.3 µM, first compound 1 µM
[25] = second compound 0.000949 µM, first compound 0.00316 µM
[26] = second compound 0.000949 µM, first compound 0.01 µM
[27] = second compound 0.003 µM, first compound 0.00316 µM
[28] = second compound 0.003 µM, first compound 0.01 µM
[29] = second compound 0.00949 µM, first compound 0.00316 µM
[30] = second compound 0.00949 µM, first compound 0.01 µM
[31] = second compound 0.03 µM, first compound 0.00316 µM
[32] = second compound 0.03 µM, first compound 0.01 µM
[33] = second compound 0.0949 µM, first compound 0.00316 µM
[34] = second compound 0.0949 µM, first compound 0.01 µM
[35] = second compound 0.3 µM, first compound 0.00316 µM
[36] = second compound 0.3 µM, first compound 0.01 µM
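Further: spheroids exposed to the agents for seven days before the readout.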

IC50 (second compound 0.000949 µM): 160 nM
IC50 (second compound 0.003 µM): 152 nM
IC50 (second compound 0.00949 µM): < 31.6 nM
IC50 (second compound 0.03 µM): < 31.6 nM
IC50 (second compound 0.0949 µM): < 31.6 nM
IC50 (second compound 0.3 µM): < 31.6 nM
SMILES: CC(Nc1ccc2c(c1)OCCn1cc(N3C(=O)OCC3C(F)F)nc1-2)C(N)=O (stereo unspecified) + CCn1c(-c2cc(N3CCN(C)CC3)cnc2C(C)OC)c2c3cc(ccc31)-c1csc(n1)CC(NC(=O)C1CC1C)C(=O)N1CCCC(N1)C(=O)OCC(C)(C)C2
viability, T/C [1]: 72.8%
viability, T/C [2]: 57.9%
viability, T/C [3]: 37.4%
viability, T/C [4]: 33.5%
viability, T/C (second compound 0.000949 µM, first compound 3.16 µM): 24.9%
viability, T/C (second compound 0.000949 µM, first compound 10 µM): 18.5%
viability, T/C [5]: 60%
viability, T/C [6]: 56.5%
viability, T/C [7]: 38.9%
viability, T/C [8]: 35.6%
viability, T/C (second compound 0.003 µM, first compound 3.16 µM): 17.2%
viability, T/C (second compound 0.003 µM, first compound 10 µM): 13.2%
viability, T/C [9]: 37.8%
viability, T/C [10]: 32.8%
viability, T/C [11]: 29.7%
viability, T/C [12]: 19.1%
viability, T/C (second compound 0.00949 µM, first compound 3.16 µM): 16.3%
viability, T/C (second compound 0.00949 µM, first compound 10 µM): 10.7%
viability, T/C [13]: 34.5%
viability, T/C [14]: 27.7%
viability, T/C [15]: 21.2%
viability, T/C [16]: 12%
viability, T/C (second compound 0.03 µM, first compound 3.16 µM): 11.2%
viability, T/C (second compound 0.03 µM, first compound 10 µM): 6.45%
viability, T/C [17]: 27.4%
viability, T/C [18]: 19.4%
viability, T/C [19]: 12%
viability, T/C [20]: 13%
viability, T/C (second compound 0.0949 µM, first compound 3.16 µM): 8.97%
viability, T/C (second compound 0.0949 µM, first compound 10 µM): 5.82%
viability, T/C [21]: 20.6%
viability, T/C [22]: 14.2%
viability, T/C [23]: 12.9%
viability, T/C [24]: 8.03%
viability, T/C (second compound 0.3 µM, first compound 3.16 µM): 7.08%
viability, T/C (second compound 0.3 µM, first compound 10 µM): 4.92%

IC50 (second compound 0.000949 µM): > 1000 nM
IC50 (second compound 0.003 µM): 94.8 nM
IC50 (second compound 0.00949 µM): 5.9 nM
IC50 (second compound 0.03 µM): < 3.16 nM
IC50 (second compound 0.0949 µM): < 3.16 nM
IC50 (second compound 0.3 µM): < 3.16 nM
SMILES: CCN1CCN(Cc2ccc(Nc3ncc(F)c(-c4cc(F)c5nc(C)n(C(C)C)c5c4)n3)nc2)CC1 + CCn1c(-c2cc(N3CCN(C)CC3)cnc2C(C)OC)c2c3cc(ccc31)-c1csc(n1)CC(NC(=O)C1CC1C)C(=O)N1CCCC(N1)C(=O)OCC(C)(C)C2
viability, T/C [25]: 81.5%
viability, T/C [26]: 62.4%
viability, T/C [1]: 66.9%
viability, T/C [2]: 58.1%
viability, T/C [3]: 62.6%
viability, T/C [4]: 58%
viability, T/C [27]: 63.4%
viability, T/C [28]: 66.9%
viability, T/C [5]: 62.3%
viability, T/C [6]: 49.5%
viability, T/C [7]: 46.2%
viability, T/C [8]: 47.5%
viability, T/C [29]: 56.6%
viability, T/C [30]: 45.9%
viability, T/C [9]: 37%
viability, T/C [10]: 30.4%
viability, T/C [11]: 34%
viability, T/C [12]: 33.1%
viability, T/C [31]: 24.2%
viability, T/C [32]: 30.9%
viability, T/C [13]: 30.9%
viability, T/C [14]: 24.4%
viability, T/C [15]: 26.3%
viability, T/C [16]: 29.4%
viability, T/C [33]: 30.6%
viability, T/C [34]: 26.6%
viability, T/C [17]: 15.7%
viability, T/C [18]: 22.2%
viability, T/C [19]: 24.3%
viability, T/C [20]: 25.4%
viability, T/C [35]: 23.3%
viability, T/C [36]: 24.7%
viability, T/C [21]: 17.5%
viability, T/C [22]: 17.7%
viability, T/C [23]: 18.1%
viability, T/C [24]: 29.2%

IC50 (second compound 0.000949 µM): 43.1 nM
IC50 (second compound 0.003 µM): 18 nM
IC50 (second compound 0.00949 µM): 7.57 nM
IC50 (second compound 0.03 µM): < 3.16 nM
IC50 (second compound 0.0949 µM): < 3.16 nM
IC50 (second compound 0.3 µM): < 3.16 nM
SMILES: O=C(c1ccc(F)c(F)c1Nc1ccc(I)cc1F)N1CC(O)([C@@H]2CCCCN2)C1 + CCn1c(-c2cc(N3CCN(C)CC3)cnc2C(C)OC)c2c3cc(ccc31)-c1csc(n1)CC(NC(=O)C1CC1C)C(=O)N1CCCC(N1)C(=O)OCC(C)(C)C2
viability, T/C [25]: 77.8%
viability, T/C [26]: 73.4%
viability, T/C [1]: 48.3%
viability, T/C [2]: 43.1%
viability, T/C [3]: 14.6%
viability, T/C [4]: 4.82%
viability, T/C [27]: 52.7%
viability, T/C [28]: 54%
viability, T/C [5]: 45.5%
viability, T/C [6]: 34.8%
viability, T/C [7]: 12%
viability, T/C [8]: 4.41%
viability, T/C [29]: 52.2%
viability, T/C [30]: 50.2%
viability, T/C [9]: 34.1%
viability, T/C [10]: 14.4%
viability, T/C [11]: 7.76%
viability, T/C [12]: 3.12%
viability, T/C [31]: 26.6%
viability, T/C [32]: 16.9%
viability, T/C [13]: 15.1%
viability, T/C [14]: 9.74%
viability, T/C [15]: 4.27%
viability, T/C [16]: 3.44%
viability, T/C [33]: 19.7%
viability, T/C [34]: 16.8%
viability, T/C [17]: 12.1%
viability, T/C [18]: 5.71%
viability, T/C [19]: 3.46%
viability, T/C [20]: 2.86%
viability, T/C [35]: 15.9%
viability, T/C [36]: 15%
viability, T/C [21]: 10.6%
viability, T/C [22]: 4.53%
viability, T/C [23]: 4.09%
viability, T/C [24]: 1.86%
